This is an account of results in patent publication US7951814B2, “Quinazolinedione derivatives as TRPA1 modulators” (Glenmark Pharmaceuticals, S.A., priority 2008, dated 2011).

This test addresses T1, Human TRPA1 expressing CHO cells (Homo sapiens, UniProt O75762).
T1 construct: expressed in transfected cells; host or cells: CHO cells (under G-418 selection)
The experiment in a line: 45Calcium uptake assay: inhibition of AITC induced cellular uptake of radioactive calcium. Type of test: cell-based. The note with it: AITC 30 μM, human TRPA1 CHO cells; for inhibition at 1 µM: 1.0 μM test compound, read-out: Percentage inhibition at 1.0 μM; for inhibition at 10 µM: 10.0 μM test compound, read-out: Percentage inhibition at 10.0 μM; for IC50: read-out: IC50 value (range). Here is the method:
The illustrative examples of the present invention are screened for TRPA1 activity according to a modified procedure described in (a) Tóth, A. et al. Life Sciences (2003), 73, 487-498. ([…]. et al. Proc. Natl. Acad. Sci. U.S.A., (2007), 104, 13525-13530. The screening of the compounds can be carried out by other methods and procedures known to persons skilled in the art. Screening for TRPA1 Antagonist Using the ^45Calcium Uptake Assay The inhibition of TRPA1 receptor activation was measured as inhibition of allyl isothiocyanate (AITC) induced cellular uptake of radioactive calcium. […] Final concentration of DMSO in the reaction was 0.5% (v/v). […] Cells were seeded 24 h prior to the assay in 96 well plates so as to get 50,000 cells per well on the day of experiment. Cells were treated with test compounds for 10 min followed by addition of AITC at a final concentration of 30 μM and 5 μCi/ml ^45Ca^+2 for 3 min. […] Radioactivity in the lysate was measured in Packard Top count after addition of liquid scintillant. Concentration response curves were plotted as a % of maximal response obtained in the absence of test antagonist. IC50 value was calculated from concentration response curve by nonlinear regression analysis using GraphPad PRISM software.

T1 sequence (O75762 whole entry): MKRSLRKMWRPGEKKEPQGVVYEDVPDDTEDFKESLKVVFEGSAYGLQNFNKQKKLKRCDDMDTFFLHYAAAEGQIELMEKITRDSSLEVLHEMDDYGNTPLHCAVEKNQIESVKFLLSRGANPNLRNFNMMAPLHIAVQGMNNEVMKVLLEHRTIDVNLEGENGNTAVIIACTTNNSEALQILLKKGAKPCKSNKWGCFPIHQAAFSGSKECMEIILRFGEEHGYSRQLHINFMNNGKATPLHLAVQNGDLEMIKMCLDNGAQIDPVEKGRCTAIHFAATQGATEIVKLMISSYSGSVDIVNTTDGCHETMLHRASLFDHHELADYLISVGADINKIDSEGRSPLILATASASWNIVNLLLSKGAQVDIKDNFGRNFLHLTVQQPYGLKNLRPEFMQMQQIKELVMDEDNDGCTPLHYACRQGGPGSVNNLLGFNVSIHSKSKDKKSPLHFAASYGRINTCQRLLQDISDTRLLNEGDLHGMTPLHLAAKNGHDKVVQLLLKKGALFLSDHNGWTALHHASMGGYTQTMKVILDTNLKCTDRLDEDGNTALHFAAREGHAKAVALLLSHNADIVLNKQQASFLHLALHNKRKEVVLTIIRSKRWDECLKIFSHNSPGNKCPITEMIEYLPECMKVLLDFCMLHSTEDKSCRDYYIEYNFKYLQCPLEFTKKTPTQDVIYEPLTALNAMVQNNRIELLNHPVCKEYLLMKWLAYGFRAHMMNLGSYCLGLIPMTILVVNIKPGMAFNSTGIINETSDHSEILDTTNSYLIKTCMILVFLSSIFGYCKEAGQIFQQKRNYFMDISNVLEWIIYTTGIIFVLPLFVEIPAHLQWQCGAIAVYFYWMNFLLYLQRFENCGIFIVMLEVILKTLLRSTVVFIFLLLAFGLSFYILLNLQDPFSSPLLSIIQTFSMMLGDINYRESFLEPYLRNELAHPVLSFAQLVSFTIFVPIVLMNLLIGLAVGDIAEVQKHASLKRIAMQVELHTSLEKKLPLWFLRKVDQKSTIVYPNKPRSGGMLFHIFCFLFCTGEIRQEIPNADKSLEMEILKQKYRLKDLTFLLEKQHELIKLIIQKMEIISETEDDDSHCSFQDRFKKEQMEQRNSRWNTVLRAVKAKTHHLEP

Broadly, the inhibition is the percentage by which the read-out fell short of the control. What is called IC50 is the point on the concentration scale where inhibition reaches its midpoint. For the compound `Cc1ccc(-c2csc(NC(=O)Cc3cccc4c3c(=O)n(C)c(=O)n4C)n2)cc1` [Example 24, N1-[4-(4-Methylphenyl)-1,3-thiazol-2yl]-2-(1,3-dimethyl-2,4-dioxo-1,2,3,4-tetrahydro-5-quinazolinyl)acetamide], the inhibition at 1 µM amounted to 83.9%, the inhibition at 10 µM is 96.8% and the IC50 lay within 50.1 to 100 nM.

For the compound `CCn1c(=O)c2c(CC(=O)Nc3nc(-c4ccc(Cl)cc4)cs3)cccc2n(CC)c1=O` [Example 25, N1-[4-(4-Chlorophenyl)-1,3-thiazol-2-yl]-2-(1,3-diethyl-2,4-dioxo-1,2,3,4-tetrahydro-5-quinazolinyl)acetamide], the inhibition at 1 µM was 20.4% and the inhibition at 10 µM was 30.8%.

In the case of `CCCn1c(=O)c2c(CC(=O)Nc3nc(-c4cccc(C(F)(F)F)c4)cs3)cccc2n(CCC)c1=O` [Example 26, N1-[4-(3-Trifluoromethylphenyl)-1,3-thiazo-2-yl]-2-(1,3-dipropyl-2,4-dioxo-1,2,3,4-tetrahydro-5-quinazolinyl)acetamide], the inhibition at 1 µM amounted to 13.6% and the inhibition at 10 µM is 5.39%.

As for `Cn1c(=O)n(CC2CC2)c(=O)c2c(CC(=O)Nc3nc(-c4ccc(C(C)(C)C)cc4)cs3)cccc21` [Example 27, N1-[4-(4-tert-Butylphenyl)-1,3-thiazol-2-yl]-2-(1-methyl-3-cyclopropylmethyl-2,4-dioxo-1,2,3,4-tetrahydro-5-quinazolinyl)acetamide], the inhibition at 1 µM stood at 17.2% and the inhibition at 10 µM was 29.6%.

Turning to `CCOC(=O)n1c(=O)[nH]c2cccc(CC(=O)Nc3nc(-c4ccc(Cl)cc4)cs3)c2c1=O` [Example 28], the inhibition at 1 µM came out at 2.8% and the inhibition at 10 µM is 6.54%.

Regarding `O=C(Cc1cccc2[nH]c(=O)[nH]c(=O)c12)Nc1nc(-c2ccc(Cl)cc2)cs1` [Example 29, N1-[4-(4-Chlorophenyl)-1,3-thiazol-2-yl]-2-(2,4-dioxo-1,2,3,4-tetrahydro-5-quinazolinyl)acetamide], the inhibition at 1 µM was determined as 20.9% and the inhibition at 10 µM turned out to be 47.7%.

Turning to `Cc1sc(NC(=O)Cc2cccc3c2c(=O)n(C)c(=O)n3C)nc1-c1ccc(Cl)cc1` [Example 30, N1-[4-(4-Chlorophenyl)-5-methyl-1,3-thiazolyl]-2-(1,3-dimethyl-2,4-dioxo-1,2,3,4-tetrahydro-5-quinazolinyl)acetamide], the inhibition at 1 µM stood at 37.3% and the inhibition at 10 µM came out at 91%.

Consider `Cn1c(=O)c2c(CC(=O)Nc3nc(-c4ccc(F)cc4F)cs3)cccc2n(C)c1=O` [Example 31, N1-[4-(2,4-Difluorophenyl)-1,3-thiazol-2-yl]-2-(1,3-dimethyl-2,4-dioxo-1,2,3,4-tetrahydro-5-quinazolinyl)acetamide], for which the inhibition at 1 µM stood at 90.1%, the inhibition at 10 µM was found to be 97.9% and the IC50 was less than 50 nM.

Regarding `Cn1c(=O)c2c(CC(=O)Nc3nc(-c4ccc(F)c(F)c4)cs3)cccc2n(C)c1=O` [Example 32, N1-[4-(3,4-Difluorophenyl)-1,3-thiazol-2-yl]-2-(1,3-dimethyl-2,4-dioxo-1,2,3,4-tetrahydro-5-quinazolinyl)acetamide], the inhibition at 1 µM stood at 53.7% and the inhibition at 10 µM amounted to 66.3%.

As to `Cn1c(=O)c2c(CC(=O)Nc3nc(-c4c(F)cccc4F)cs3)cccc2n(C)c1=O` [Example 33, N1-[4-(2,6-Difluorophenyl)-1,3-thiazol-2-yl]-2-(1,3-dimethyl-2,4-dioxo-1,2,3,4-tetrahydro-5-quinazolinyl)acetamide], the inhibition at 1 µM turned out to be 50.4% and the inhibition at 10 µM stood at 79.8%.

For `Cn1c(=O)c2c(CC(=O)Nc3nc(-c4cc(F)cc(F)c4)cs3)cccc2n(C)c1=O` [Example 34, N1-[4-(3,5-Difluorophenyl)-1,3-thiazol-2-yl]-2-(1,3-dimethyl-2,4-dioxo-1,2,3,4-tetrahydro-5-quinazolinyl)acetamide], the inhibition at 1 µM is 15.8% and the inhibition at 10 µM stood at 85%.

In the case of `Cn1c(=O)c2c(CC(=O)Nc3nc(-c4cccc(F)c4F)cs3)cccc2n(C)c1=O` [Example 35, N1-[4-(2,3-Difluorophenyl)-1,3-thiazol-2-yl]-2-(1,3-dimethyl-2,4-dioxo-1,2,3,4-tetrahydro-5-quinazolinyl)acetamide], the inhibition at 1 µM stood at 76.8%, the inhibition at 10 µM came out at 95.8% and the IC50 was 50.1 to 100 nM.

For `Cn1c(=O)c2c(CC(=O)Nc3nc(-c4ccc(C(F)(F)F)cc4F)cs3)cccc2n(C)c1=O` [Example 36, N1-[4-(2-Fluoro-4-trifluoromethylphenyl)-1,3-thiazol-2-yl]-2-(1,3-dimethyl-2,4-1,2,3,4-tetrahydro-5-quinazolinyl)acetamide], the inhibition at 1 µM came out at 95.1%, the inhibition at 10 µM was 100% and the IC50 is less than 50 nM.

As to `Cn1c(=O)c2c(CC(=O)Nc3nc(-c4ccc(F)c(C(F)(F)F)c4)cs3)cccc2n(C)c1=O` [Example 38, N1-[4-(4-Fluoro-3-trifluoromethylphenyl)-1,3-thiazol-2-yl]-2-(1,3-dimethyl-2,4-dioxo-1,2,3,4-tetrahydro-5-quinazolinyl)acetamide], the inhibition at 1 µM was found to be 98.5%, the inhibition at 10 µM amounted to 98.7% and the 50% inhibitory concentration (IC50) is less than 50 nM.

With `Cn1c(=O)c2c(CC(=O)Nc3nc(-c4ccc(F)cc4C(F)(F)F)cs3)cccc2n(C)c1=O` [Example 39, N1-[4-(4-Fluoro-2-trifluoromethylphenyl)-1,3-thiazol-2-yl]-2-(1,3-dimethyl-2,4-dioxo-1,2,3,4-tetrahydro-5-quinazolinyl)acetamide], the inhibition at 1 µM was 51.6% and the inhibition at 10 µM stood at 90.3%.

Consider `Cn1c(=O)c2c(CC(=O)Nc3nc(-c4cc(C(F)(F)F)ccc4F)cs3)cccc2n(C)c1=O` [Example 40, N1-[4-(2-Fluoro-5-trifluoromethylphenyl)-1,3-thiazol-2-yl]-2-(1,3-dimethyl-2,4-dioxo-1,2,3,4-tetrahydro-5-quinazolinyl)acetamide], for which the inhibition at 1 µM was 82.7%, the inhibition at 10 µM was found to be 98.7% and the IC50 is more than 100 nM.

In the case of `Cn1c(=O)c2c(CC(=O)Nc3nc(-c4ccc(OC(F)(F)F)c(F)c4)cs3)cccc2n(C)c1=O` [Example 41], the inhibition at 1 µM was 74.4%, the inhibition at 10 µM turned out to be 99.7% and the IC50 is less than 50 nM.

`Cn1c(=O)c2c(CC(=O)Nc3nc(-c4ccc(F)c(OC(F)(F)F)c4)cs3)cccc2n(C)c1=O` [Example 42]: the inhibition at 1 µM stood at 98.3%, the inhibition at 10 µM stood at 99% and the IC50 lay in the range of 50.1 to 100 nM.

`COc1ccc(-c2csc(NC(=O)Cc3cccc4c3c(=O)n(C)c(=O)n4C)n2)cc1F` [Example 43]: the inhibition at 1 µM worked out at 5.71% and the inhibition at 10 µM is 9.15%.

`Cn1c(=O)c2c(CC(=O)Nc3nc(-c4ccc(OC(F)F)c(F)c4)cs3)cccc2n(C)c1=O` [Example 44, N1-[4-(4-Difluoromethoxyl-3-fluorophenyl)-1,3-thiazol-2-yl]-2-(1,3-dimethyl-2,4-dioxo-1,2,3,4-tetrahydro-5-quinazolinyl)acetamide]: the inhibition at 1 µM was 46.2% and the inhibition at 10 µM worked out at 99.2%.
